{
  "source": "patent US11117900B2",
  "about": "(Vertex Pharmaceuticals Incorporated, priority 2012, dated 2021)",
  "data": [
    {"test_system": "HCT116 colorectal cancer cells", "assay": "Cisplatin sensitization assay (96 h MTS cell viability);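 also: compound concentration needed to lower the IC50 of Cisplatin alone by a set fold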", "assay_type": "cell-based", "settings": "Cisplatin sensitization value", "protocol": "Compounds can be screened for their ability to sensitize HCT116 colorectal cancer cells to Cisplatin using a 96 h cell viability (MTS) assay. […] Compounds and Cisplatin are then both added simultaneously to the cell media in 2-fold serial dilutions from a top final concentration of 10 μM as a full matrix of concentrations in a final cell volume of 200 μl, and the cells are then incubated at 37° C. in 5% CO2. After 96 h, 40 μl of MTS reagent (Promega G358a) is added to each well and the cells are incubated for 1 h at 37° C. in 5% CO2.\nCompounds with a Cisplatin sensitization value of <0.02 μM are marked with “+++.” Compounds with a Cisplatin sensitization value >0.02 μM but <0.2 μM are marked with “++.” Compounds with a Cisplatin sensitization value >0.2 μM but <5 μM are marked with “+.”", "values": [
      {"compound": "C[N+]1([O-])CCc2c(cncc2NC(=O)c2c(N)nn3cc(F)cnc23)C1", "note": "(stereo not drawn) [I-C-9, 5-(2-amino-6-fluoropyrazolo[1,5-a]pyrimidine-3-carboxamido)-2-methyl-1,2,3,4-tetrahydro-2,7-naphthyridine 2-oxide]", "Cisplatin Sensitization Assay": "+ (Compounds with a Cisplatin sensitization value >0.2 μM but <5 μM are marked with “+.”)"},
      {"compound": "Nc1nn2cc(F)cnc2c1C(=O)Nc1cnccc1C1CCN(C2COC2)CC1", "note": "[I-C-10, 2-amino-6-fluoro-N-(4-(1-(oxetan-3-yl)piperidin-4-yl)pyridin-3-yl)pyrazolo[1,5-a]pyrimidine-3-carboxamide]", "Cisplatin Sensitization Assay": "+++ (Compounds with a Cisplatin sensitization value of <0.02 μM are marked with “+++.”)"},
      {"compound": "Nc1nn2cc(Cl)cnc2c1C(=O)Nc1cnccc1C1CCN(C2COC2)CC1", "note": "[I-C-11, 2-amino-6-chloro-N-(4-(1-(oxetan-3-yl)piperidin-4-yl)pyridin-3-yl)pyrazolo[1,5-a]pyrimidine-3-carboxamide]", "Cisplatin Sensitization Assay": "+++ (Compounds with a Cisplatin sensitization value of <0.02 μM are marked with “+++.”)"},
      {"compound": "Nc1nn2cc(F)cnc2c1C(=O)Nc1cncc(F)c1C1=CCN(C2COC2)CC1", "note": "[I-C-12, 2-amino-6-fluoro-N-(5-fluoro-1′-(oxetan-3-yl)-1′,2′,3′,6′-tetrahydro-[4,4′-bipyridin]-3-yl)pyrazolo[1,5-a]pyrimidine-3-carboxamide]", "Cisplatin Sensitization Assay": "+++ (Compounds with a Cisplatin sensitization value of <0.02 μM are marked with “+++.”)"},
      {"compound": "Nc1nn2cc(F)cnc2c1C(=O)Nc1cncc(F)c1C1CCN(C2COC2)CC1", "note": "[I-C-13, 2-amino-6-fluoro-N-(5-fluoro-4-(1-(oxetan-3-yl)piperidin-4-yl)pyridin-3-yl)pyrazolo[1,5-a]pyrimidine-3-carboxamide]", "Cisplatin Sensitization Assay": "++ (Compounds with a Cisplatin sensitization value >0.02 μM but <0.2 μM are marked with “++.”)"},
      {"compound": "CN1CCC(c2c(F)cncc2NC(=O)c2c(N)nn3cc(F)cnc23)CC1", "note": "[I-C-14, 2-amino-6-fluoro-N-(5-fluoro-4-(1-methylpiperidin-4-yl)pyridin-3-yl)pyrazolo[1,5-a]pyrimidine-3-carboxamide]", "Cisplatin Sensitization Assay": "+ (Compounds with a Cisplatin sensitization value >0.2 μM but <5 μM are marked with “+.”)"},
      {"compound": "Nc1nn2cc(F)cnc2c1C(=O)Nc1cnccc1-c1cccnc1", "note": "[I-C-15, N-([3,4′-bipyridin]-3′-yl)-2-amino-6-fluoropyrazolo[1,5-a]pyrimidine-3-carboxamide]", "Cisplatin Sensitization Assay": "++ (Compounds with a Cisplatin sensitization value >0.02 μM but <0.2 μM are marked with “++.”)"},
      {"compound": "CN1CCC(C(=O)N2CCC(c3ccncc3NC(=O)c3c(N)nn4cc(F)cnc34)CC2)CC1", "note": "[I-C-16, 2-amino-6-fluoro-N-(4-(1-(1-methylpiperidine-4-carbonyl)piperidin-4-yl)pyridin-3-yl)pyrazolo[1,5-a]pyrimidine-3-carboxamide]", "Cisplatin Sensitization Assay": "+ (Compounds with a Cisplatin sensitization value >0.2 μM but <5 μM are marked with “+.”)"},
      {"compound": "CN1CCN(C(=O)N2CCC(c3ccncc3NC(=O)c3c(N)nn4cc(F)cnc34)CC2)CC1", "note": "[I-C-17, 2-amino-6-fluoro-N-(4-(1-(4-methylpiperazine-1-carbonyl)piperidin-4-yl)pyridin-3-yl)pyrazolo[1,5-a]pyrimidine-3-carboxamide]", "Cisplatin Sensitization Assay": "++ (Compounds with a Cisplatin sensitization value >0.02 μM but <0.2 μM are marked with “++.”)"},
      {"compound": "Nc1nn2cc(F)cnc2c1C(=O)Nc1cnccc1C1CCN(C(=O)C23CCN(CC2)CC3)CC1", "note": "[I-C-18, 2-amino-6-fluoro-N-(4-(1-(quinuclidine-4-carbonyl)piperidin-4-yl)pyridin-3-yl)pyrazolo[1,5-a]pyrimidine-3-carboxamide]", "Cisplatin Sensitization Assay": "+ (Compounds with a Cisplatin sensitization value >0.2 μM but <5 μM are marked with “+.”)"},
      {"compound": "CN1CCN(C(=O)c2ccc(-c3ccncc3NC(=O)c3c(N)nn4cc(F)cnc34)cn2)CC1", "note": "[I-C-19, 2-amino-6-fluoro-N-(6-(4-methylpiperazine-1-carbonyl)-[3,4′-bipyridin]-3′-yl)pyrazolo[1,5-a]pyrimidine-3-carboxamide]", "Cisplatin Sensitization Assay": "++ (Compounds with a Cisplatin sensitization value >0.02 μM but <0.2 μM are marked with “++.”)"},
      {"compound": "Cc1ncccc1-c1ccncc1NC(=O)c1c(N)nn2cc(F)cnc12", "note": "[I-C-20, 2-amino-6-fluoro-N-(2-methyl-[3,4′-bipyridin]-3′-yl)pyrazolo[1,5-a]pyrimidine-3-carboxamide]", "Cisplatin Sensitization Assay": "+++ (Compounds with a Cisplatin sensitization value of <0.02 μM are marked with “+++.”)"},
      {"compound": "CN1CCN(c2ccc(-c3ccncc3NC(=O)c3c(N)nn4cc(F)cnc34)cn2)CC1", "note": "[I-C-21, 2-amino-6-fluoro-N-(6-(4-methylpiperazin-1-yl)-[3,4′-bipyridin]-3′-yl)pyrazolo[1,5-a]pyrimidine-3-carboxamide]", "Cisplatin Sensitization Assay": "+++ (Compounds with a Cisplatin sensitization value of <0.02 μM are marked with “+++.”)"},
      {"compound": "Cc1ccc(-c2ccncc2NC(=O)c2c(N)nn3cc(F)cnc23)cn1", "note": "[I-C-22, 2-amino-6-fluoro-N-(6-methyl-[3,4′-bipyridin]-3′-yl)pyrazolo[1,5-a]pyrimidine-3-carboxamide]", "Cisplatin Sensitization Assay": "++ (Compounds with a Cisplatin sensitization value >0.02 μM but <0.2 μM are marked with “++.”)"},
      {"compound": "CN1CCC(c2ccncc2NC(=O)c2c(N)nn3cc(C(C)(C)C#N)cnc23)CC1", "note": "[I-C-23, 2-amino-6-(2-cyanopropan-2-yl)-N-(4-(1-methylpiperidin-4-yl)pyridin-3-yl)pyrazolo[1,5-a]pyrimidine-3-carboxamide]", "Cisplatin Sensitization Assay": "+ (Compounds with a Cisplatin sensitization value >0.2 μM but <5 μM are marked with “+.”)"},
      {"compound": "Nc1nn2cc(F)cnc2c1C(=O)Nc1cnccc1-c1ccncc1", "note": "[I-C-24, N-([4,4′-bipyridin]-3-yl)-2-amino-6-fluoropyrazolo[1,5-a]pyrimidine-3-carboxamide]", "Cisplatin Sensitization Assay": "+++ (Compounds with a Cisplatin sensitization value of <0.02 μM are marked with “+++.”)"},
      {"compound": "CN1CCN(C(=O)c2ccc(-c3ccncc3NC(=O)c3c(N)nn4cc(F)cnc34)cc2)CC1", "note": "[I-C-25, 2-amino-6-fluoro-N-(4-(4-(4-methylpiperazine-1-carbonyl)phenyl)pyridin-3-yl)pyrazolo[1,5-a]pyrimidine-3-carboxamide]", "Cisplatin Sensitization Assay": "+++ (Compounds with a Cisplatin sensitization value of <0.02 μM are marked with “+++.”)"},
      {"compound": "Nc1nn2cc(F)cnc2c1C(=O)Nc1cnccc1-c1ccnnc1", "note": "[I-C-26, 2-amino-6-fluoro-N-(4-(pyridazin-4-yl)pyridin-3-yl)pyrazolo[1,5-a]pyrimidine-3-carboxamide]", "Cisplatin Sensitization Assay": "++ (Compounds with a Cisplatin sensitization value >0.02 μM but <0.2 μM are marked with “++.”)"},
      {"compound": "COc1ccc(-c2ccncc2NC(=O)c2c(N)nn3cc(F)cnc23)cn1", "note": "[I-C-27, 2-amino-6-fluoro-N-(6-methoxy-[3,4′-bipyridin]-3′-yl)pyrazolo[1,5-a]pyrimidine-3-carboxamide]", "Cisplatin Sensitization Assay": "++ (Compounds with a Cisplatin sensitization value >0.02 μM but <0.2 μM are marked with “++.”)"},
      {"compound": "Cc1cnccc1-c1ccncc1NC(=O)c1c(N)nn2cc(F)cnc12", "note": "[I-C-29, 2-amino-6-fluoro-N-(3′-methyl-[4,4′-bipyridin]-3-yl)pyrazolo[1,5-a]pyrimidine-3-carboxamide]", "Cisplatin Sensitization Assay": "+++ (Compounds with a Cisplatin sensitization value of <0.02 μM are marked with “+++.”)"},
      {"compound": "Cc1ccncc1-c1ccncc1NC(=O)c1c(N)nn2cc(F)cnc12", "note": "[I-C-30, 2-amino-6-fluoro-N-(4-methyl-[3,4′-bipyridin]-3′-yl)pyrazolo[1,5-a]pyrimidine-3-carboxamide]", "Cisplatin Sensitization Assay": "+++ (Compounds with a Cisplatin sensitization value of <0.02 μM are marked with “+++.”)"},
      {"compound": "Cc1nnccc1-c1ccncc1NC(=O)c1c(N)nn2cc(F)cnc12", "note": "[I-C-31, 2-amino-6-fluoro-N-(4-(3-methylpyridazin-4-yl)pyridin-3-yl)pyrazolo[1,5-a]pyrimidine-3-carboxamide]", "Cisplatin Sensitization Assay": "+++ (Compounds with a Cisplatin sensitization value of <0.02 μM are marked with “+++.”)"},
      {"compound": "Cc1ccnnc1-c1ccncc1NC(=O)c1c(N)nn2cc(F)cnc12", "note": "[I-C-33, 2-amino-6-fluoro-N-(4-(4-methylpyridazin-3-yl)pyridin-3-yl)pyrazolo[1,5-a]pyrimidine-3-carboxamide]", "Cisplatin Sensitization Assay": "+ (Compounds with a Cisplatin sensitization value >0.2 μM but <5 μM are marked with “+.”)"},
      {"compound": "Cc1nc(F)ccc1-c1ccncc1NC(=O)c1c(N)nn2cc(F)cnc12", "note": "[I-C-34, 2-amino-6-fluoro-N-(6-fluoro-2-methyl-[3,4′-bipyridin]-3′-yl)pyrazolo[1,5-a]pyrimidine-3-carboxamide]", "Cisplatin Sensitization Assay": "+++ (Compounds with a Cisplatin sensitization value of <0.02 μM are marked with “+++.”)"},
      {"compound": "Nc1nn2cc(F)cnc2c1C(=O)Nc1cnccc1-c1cccnc1F", "note": "[I-C-35, 2-amino-6-fluoro-N-(2-fluoro-[3,4′-bipyridin]-3′-yl)pyrazolo[1,5-a]pyrimidine-3-carboxamide]", "Cisplatin Sensitization Assay": "+++ (Compounds with a Cisplatin sensitization value of <0.02 μM are marked with “+++.”)"},
      {"compound": "Cc1cccnc1-c1ccncc1NC(=O)c1c(N)nn2cc(F)cnc12", "note": "[I-C-36, 2-amino-6-fluoro-N-(3-methyl-[2,4′-bipyridin]-3′-yl)pyrazolo[1,5-a]pyrimidine-3-carboxamide]", "Cisplatin Sensitization Assay": "+++ (Compounds with a Cisplatin sensitization value of <0.02 μM are marked with “+++.”)"},
      {"compound": "Nc1nn2cc(F)cnc2c1C(=O)Nc1cnccc1-c1cccnc1Cl", "note": "[I-C-37, 2-amino-N-(2-chloro-[3,4′-bipyridin]-3′-yl)-6-fluoropyrazolo[1,5-a]pyrimidine-3-carboxamide]", "Cisplatin Sensitization Assay": "+++ (Compounds with a Cisplatin sensitization value of <0.02 μM are marked with “+++.”)"}
    ]}
  ]
}
